Measured values from US11478466B2, “Small molecule promoting osteoblast differentiation” (Cornell University, priority 2019, dated 2022).

What was measured:
Format in all cases: cell-based, mouse
[1] = test system: alkaline phosphatase (ALP); test: ALP expression staining in C2C12 cells; settings: C2C12, 2 days, 10 μM
Method: C2C12 cells were treated for 2 days with 10 μM DIPQUO or structural analogs, 1 ng/ml rhBMP4, or with inhibitors as noted in figure legends, and then fixed briefly in 70% acetone/10% formaldehyde/20% citrate. Staining was achieved using the leukocyte alkaline phosphatase kit (Sigma 86R-1KT) according to the manufacturer's instructions. Expression of ALP was confirmed and quantified by flow cytometric analysis, using an Accuri C6 flow cytometer. Briefly, control- or DIPQUO-treated C2C12 cells were detached and harvested on day 2 using PBS-based enzyme-free cell detachment solution (ThermoFisher). 2×10^5 cells were incubated on ice for 30 minutes with 10 μl APC-conjugated ALPL antibody (R&D Systems), and washed in ice-cold PBS before analysis. Live cells were gated and analyzed in CFlow Plus software and then data was converted to FlowJo to achieve publication-level resolution. For siRNA experiments, gene-specific oligonucleotides were obtained for mouse p38-alpha (Cell Signaling) and p38-beta (Santa Cruz). Signal Silence scramble siRNA control oligonucleotide was purchased from Cell Signaling. C2C12 cells at 70% confluency were transfected in 12-well plates using Lipofectamine RNAiMax reagent (Invitrogen) according to manufacturer's instructions. Transfected cells were treated 24 hours later with DMSO or 10 μM DIPQUO, and siRNA transfection was repeated after 48 hours without changing culture media. After an additional 3 days, cells were either fixed and stained for ALP expression or analyzed for ALP activity using the AttoPhos Substrate kit. Hemagglutinin and FLAG epitope-tagged MKK3 (pMT2-HA-MKK3) and MKK6 (pcDNA3-FLAG-MKK6) constructs were obtained from Addgene and transfected into C2C12 cells using Lipofectamine LTX with Plus Reagent (ThermoFisher) according to manufacturer's instructions and cell extracts analyzed for protein expression and activity as described below.

p38 MAPK = test: Western blotting of p38 MAPK phosphorylation in C2C12 cells; settings: C2C12, western blotting
Method: (§1) Whole cell extracts were collected from C2C12 or BRITER cells in complete lysis buffer (20 mM Tris, 150 mM NaCl, 50 mM NaF, 1% NP40 substitute, HALT protease inhibitor cocktail (ThermoScientific). Proteins were resolved by electrophoresis on pre-cast 10% NuPage Bis-Tris gels (Invitrogen) and transferred to PVDF membranes (Bio-Rad). Membranes were blocked in 5% BSA-TBS-0.5% Tween-20 for 15 minutes, then incubated at 4° overnight with primary antibodies. Antibodies used were: rabbit anti-phospho-p38 MAPK (cat. no. 9211), anti-p38 MAPK XP (8690), anti-phospho-SMAD1/5 (9516), anti-SMAD1 XP (6944), anti-phospho-SMAD2/3 (8828), anti-SMAD2/3 XP (8685), anti-phospho-JNK (4668), anti-SAPK/JNK (9252), anti-phospho-Akt XP (4060), pan anti-Akt (4691), anti-phospho ERK p42/p44 (4377), anti-ERK p42/p44 (9102), anti-phospho-MKK3/6 (12280), anti-MKK3 (8535), anti-phospho-TAK1 (4531), anti-TAK1 (5206), anti-HA (3274), and anti-FLAG (14793); all from Cell Signaling); and mouse anti-p38α (cat. no. 33-1300), anti-p38β (33-8700; both ThermoFisher) and anti-β-actin (Sigma A1978). Proteins were visualized with HRP-conjugated secondary antibodies (Bio-Rad) with WestPico (ThermoFisher) or Immobilon (Millipore) chemiluminescence reagents. Images were obtained and analyzed for relative densitometric relationships on a LI-COR C-DiGit scanner using Image Studio software.

JNK p54 = test: Western blotting of JNK in C2C12 cells
Method: as §1

[2] = test system: RAW 264.7 murine macrophage cell line; test: Osteoclast differentiation (TRAP staining, qRT-PCR) in RAW 264.7 cells; settings: RAW 264.7, 4 days; DIPQUO 10 μM, RANKL 50 ng/ml
Method: To address the specificity of DIPQUO for stimulating an osteogenic versus osteoclastic program, the RAW 264.7 murine macrophage cell line was assayed for osteoclast differentiation by staining for tartrate-resistant acid phosphatase (TRAP) to distinguish multinucleated osteoclasts from macrophages. […] Thus, DIPQUO appears to be primarily supportive of osteogenesis.
The RAW 264.7 macrophage cell line was purchased from ATCC and maintained in DMEM with 10% FBS. Cells were treated with 10 μM DIPQUO or 50 ng/ml RANKL (Sigma) for 4 days. Cells were fixed in 70% acetone/10% formaldehyde/20% citrate and TRAP staining was achieved using the Leukocyte Acid Phosphatase kit (Sigma 387A-1KT).
For quantitative RT-PCR analysis of gene expression in C2C12 cultures, cells were treated for 2 days with 10 μM DIPQUO and harvested into Trizol reagent (Invitrogen). One microgram of RNA was reverse transcribed using the VILO-RT kit (Invitrogen) to generate cDNA, which was diluted 1:25 in RNase-free H2O for qPCR with Sybr green using the Roche 480 II LightCycler and the 2^−ΔΔCT method (Livak and Schmittgen, 2001). For analysis of osteoclast gene expression, RAW 264.7 cells were treated with DMSO, 50 ng/ml RANKL, or 10 μM DIPQUO for 4 days, then harvested into Trizol reagent and processed as above. Mouse qPCR primers are as follows. Runx2: F([…]) (SEQ ID NO:1); R([…]) (SEQ ID NO:2); Dlx5: F([…]) (SEQ ID NO:3); R([…]) (SEQ ID NO:4); Osterix: F([…]) (SEQ ID NO:5); R([…]) (SEQ ID NO:6); ALP: F([…]) (SEQ ID NO:7); R([…]) (SEQ ID NO:8); Osteocalcin: F([…]) (SEQ ID NO:9); R([…]) (SEQ ID NO:10); Osteoactivin: F([…]) (SEQ ID NO:11); R([…]) (SEQ ID NO:12); CTSK: F([…]) (SEQ ID NO:13); R([…]) (SEQ ID NO:14); MMP9: F([…]) (SEQ ID NO:15); R([…]) (SEQ ID NO:16); Gapdh F([…]) (SEQ ID NO:17); R([…]) (SEQ ID NO:18). RNA-seq studies were carried out with the assistance of the Weill Cornell Genomics Core Facility, using the Illumina HiSeq4000 next-generation sequencer to generate reads from cDNA libraries generated from three biological replicates of day 2 DMSO- or DIPQUO-treated C2C12 cells. […]

N#CC(c1ccnc(NCCc2cccnc2)n1)c1nc2ccccc2s1 (stereo not shown) [JNK inhibitor V, reference compound]
ALP expression by staining [1]: did not lead to ALP-positive staining | p38 MAPK signaling (phosphorylation) (p38 MAPK): activate p38 MAPK | JNK p54 signaling (JNK p54): suppress JNK p54

B1: RANKL: Receptor activator of nuclear factor kB ligand, positive control to stimulate osteoclast differentiation (protein, UniProt O14788 140-317, looked up)
Tumor necrosis factor ligand …: IRAEKAMVDGSWLDLAKRSKLEAQPFAHLTINATDIPSGSHKVSLSSWYHDRGWAKISNMTFSNGKLIVNQDGFYYLYANICFRHHETSGDLATEYLQLMVYVTKTSIKIPSSHTLMKGGSTKYWSGNSEFHFYSINVGGFFKLRSGEEISIEVSNPSLLDPDQDATYFGAFKVRDID
TRAP staining of multinucleated osteoclasts [2]: found to promote both TRAP staining
